Assay: Incubation of peptide drugs on human skin
Assay type: in vitro ADME
Excerpt: Effects of proteases on in vivo or in vitro transdermal delivery has been reported for vasopressin and vasopressin analogues (Morimoto et al., Int. Journal Pharmaceutics 81: 119-125, 1992), des-enkephalon-γ-endorphin (Bodde et al., Biochem. Soc. Trans. 17: 943-945, 1989), leucine enkephalin (Choi at al., 1990), and salmon calcitonin (SCT) (Morimoto et al., J. Pharm. Pharmacol. 44; 216-218, 1992). This was concluded because addition of protease inhibitors appear to enhance delivery as determined by increased biological effect of the peptides. For example, camostat mesilate (a serine protease inhibitor) increased the hypocalcemic effect of iontophoretically-delivered SCT (Morimoto, J. Pharm. Pharmacol. 1992) and the antidiuretic effects of vasopressin delivered iontophoretically in rats (Morimoto, Int. Journal Pharmaceutics, 1992). We have observed that incubation of insulin analogues or SCT on human skin results in degradation, which supports the notion that proteolysis accounts for previously observed losses of these peptide drugs during iontophoretic delivery.

salmon calcitonin [SCT]
result of incubation on human skin: degradation

Source: patent EP0898962A1, “Transdermal patches and methods for inactivating skin proteases” (Becton, Dickinson and Company, priority 1997, dated 1999)
